# Assay results reported in patent US7576226B2, “Process of making isomers of norelgestromin and methods using the same” (priority 2003, dated 2009).
# What was measured:
# [1] = Metabolic stability and clearance in human liver microsomes; assay type: in vitro ADME; details: human liver microsomes 1 mg/mL, 5 μM isomer, mean of 3 parallel measurements; for Metabolic stability: F% (metabolic bioavailability)
# Method: The metabolic stability of norelgestromin E and Z isomers was examined in human liver microsomes. The 2.5 mL incubation mixture contained 6 mM of Na-pyrophosphate, 5 mM of MgCl2, 5 mM of glucose-6-phosphate, 1 U/mL of glucose 6-phosphate dehydrogenase, human liver microsomes (1 mg/mL) and 5 μM of norelgestromin E or Z isomers. The pH was adjusted with 100 mM of Tris-HCl buffer to pH 7.4. The reaction was started by the addition of 5 mM of NADPH. 0.5 mL samples were taken at 0.5 and 20 minutes with immediate precipitation by 0.5 mL of ice-cold methanol. 1 mL precipitated samples were centrifuged for 30 min at 1200 g, and 10 μL of supernatant was injected into the HPLC.
# Analytical measurements were conducted using a Merck-Hitachi HPLC system, with UV monitoring at 244 nm. Unchanged material was measured and intrinsic clearance (Clint) and metabolic bioavailability (F%) was calculated with the following equations: dc/dt/c0=Clint, (mL/min×g protein), where dc/dt is the concentration change in a given period of time and c0 is the initial concentration of the norelgestromin isomer (measured in the 0 min sample). Additionally, Clint1×45=Clint2 (mL/min×g liver) and EH=Clin2/Clint2+HBF, where EH is hepatic extraction and HBF is the hepatic blood flow. Finally the metabolic stability: […]
# For statistical analysis, Student's t-test was used (Microsoft Excel). The results summarized in Table 2 are calculated as a mean of 3 parallel measurements.
# [2] = Lipophilicity by isocratic reversed-phase HPLC (k′, CHI); assay type: physicochemical; details: for Polarity (k′, HPLC): Nova-Pak C18, acetonitrile mobile phase, 25° C.; for Polarity (CHI index, HPLC): acetonitrile concentration of the mobile phase where log k′=0
# Method: Lipophilicity was determined by an HPLC method. The HPLC measurements were performed on a Thermo Separation Product (SpectraSystem P4000 and SpectraFOCUS Forward Optical Scanning Detector) HPLC instrument. Data were analyzed by ChromQuest (ver. 2.51) software.
# For reversed-phase HPLC measurements, a Nova-Pak C18 column was used (dimension of 4 μm×4.6 mm×250 mm: Waters, Ireland). Detection was performed at λ=280 nm and 25° C. The flow rate of the mobile phase was 1.0 mL/min. HPLC gradient grade acetonitrile was used as organic component (Merck KGaA., Darmstadt, Germany). The retention data of the two isomers were obtained by isocratical analysis of the mobile phases containing different amounts of acetonitrile. The void time (t0) was determined by injection of methanol.
# Samples were dissolved in a 1:1 mixture of acetonitrile:water in a concentration of 1 mg/4 mL. The log k′ values were calculated from the mean retention time measured after two subsequent injections of 10 μL volume (log k′=log((tR−t0)/t0)). The log k′ values were represented as a function of the concentration of acetonitrile.
# The chromatographical hydrophobicity index (CHI) is a measure of the lipophilic character of the compounds in the reversed phase HPLC measurements. By definition, the CHI parameter is that concentration of acetonitrile of the mobile phase where log k′=0.
# [3] = system: Caco-2 human adenocarcinoma (epithelial) cell line monolayers; test: Caco-2 permeability measurement; assay type: in vitro ADME; details: Caco-2 monolayer, luminal to basolateral, 50 μM
# Method: Drug absorption studies were performed with Caco-2 human adenocarcinoma (epithelial) cell line monolayers as an in vitro model. Passive flux characteristics of drugs across the Caco-2 monolayer have shown a correlation with human oral bioavailability.
# Caco-2 cells obtained from American Type Culture collection, Rockville, Md., (ATCC) were grown at 37° C. in an atmosphere of 5% CO2 in Dulbecco's modified eagle medium supplemented with 10% heat inactivated fetal bovine serum (GIBCOBRL 11360-039) and antibiotics: penicillin 100 U/mL, and streptomycin 100 μg/mL (GIBCOBRL 15140-031).
# Confluent cell monolayers grown in an incubator (at 37° C. with 5% CO2/[…] and 95% humidity) were subcultured every seven days by treatment with 0.25% trypsin containing 1 mM EDTA.
# 19-23-day-old confluent monolayers of fully differentiated Caco-2 cells were used for transport studies after 6-10 passages.
# EHS Cell Attachment Matrix (Promega G5971), Minimum Essential medium Eagle (MEM) with Earle salts, L-Glutamine (GIBCOBRL 41500-091) and Transwell Polycarbonate Membrane (Costar 3401) were used.
# Coated Transwells with EHS Cell Attachment Matrix (Promega G5971) and 200000-500000 Caco-2 cells are applied/inserted. […]
# The concentrations of the isomers were determined by liquid chromatography with ultraviolet (HPLC/UV) analysis. […]
# Dim.: 125−3 mm.+guard. […] Peak quantitation: height; calculation method: EXT-STD.
# [4] = Equilibrium solubility in distilled water (UV spectrophotometry); assay type: physicochemical; details: thermodynamic from solid, room temperature
# Method: The determination of equilibrium solubility of E and Z isomers of norelgestromin was carried out in distilled water. 20 mg of norelgestromin was added to 20 mL of distilled water at room temperature. The suspension was stirred continuously and samples were withdrawn from time to time. The samples were filtered, and the norelgestromin content of the filtrates was determined by a spectrophotometrical method measuring UV absorption. The spectrophotometrical measurements were performed on a VARIAN Cary 3E spectrophotometer at room temperature.
# [5] = CHI of six steroids (structure-absorption experiment); assay type: physicochemical; details: chromatographical hydrophobicity index, isocratical conditions
# Method: The beneficial effect of the increasing lipophilicity for the transdermal absorption was proven by carrying out a structure-absorption experiment with six different steroids. In the following publications: Int. J. Pharm. 217:1 (2001), and J. Chromatography 49:631 (1993), it has been shown that the chromatographical hydrophobicity index (CHI) measured under isocratical conditions is a reliable descriptor of lipophilicity. The CHI values of the investigated steroids were determined according to these experiments (Table 3) and correlated with the measured stratum corneum/water distribution coefficients.
compound,measurement,setting,value
"C#C[C@]1(O)CC[C@H]2[C@@H]3CCC4=C/C(=N/O)CC[C@@H]4[C@H]3CC[C@@]21CC (single isomer, unassigned; isomer d) [E-isomer, d-(17α)-13-ethyl-17-hydroxy-18,19-dinorpregn-4-ene-20-yn-3-one-(3E)-oxime]",Metabolic stability,[1],86.7 ± 1.67
same,Metabolic clearance (mL/min g liver),[1],0.1815 ± 0.026 mL/min g liver
same,"Polarity (k′, HPLC)",[2],1.02
same,"Polarity (CHI index, HPLC)",[2],74
same,Concentration on the abluminal side (μM in the 30th min),[3],1.27 ± 0.56 µM
same,solubility,[4],3.8 µg/mL
"C#C[C@]1(O)CC[C@H]2[C@@H]3CCC4=C/C(=N\O)CC[C@@H]4[C@H]3CC[C@@]21CC (single isomer, unassigned; isomer d) [Z-isomer, d-(17α)-13-ethyl-17-hydroxy-18,19-dinorpregn-4-ene-20-yn-3-one-(3Z)-oxime]",Metabolic stability,[1],91.9 ± 1.52
same,Metabolic clearance (mL/min g liver),[1],0.1042 ± 0.021 mL/min g liver
same,"Polarity (k′, HPLC)",[2],1.46
same,"Polarity (CHI index, HPLC)",[2],70
same,Concentration on the abluminal side (μM in the 30th min),[3],1.98 ± 0.78 µM
same,solubility,[4],12.1 µg/mL
C[C@]12CCC(=O)C=C1CC[C@@H]1[C@@H]2CC[C@@]2(C)[C@H]1CC[C@]2(O)C(=O)CO [Cortexolone],CHI,[5],54.87
C[C@]12CC[C@@H]3c4ccc(O)cc4CC[C@H]3[C@@H]1C[C@@H](O)[C@@H]2O [Estriol],CHI,[5],40.45
C[C@]12CCC(=O)C=C1CC[C@@H]1[C@@H]2[C@@H](O)C[C@@]2(C)[C@H]1CC[C@]2(O)C(=O)CO [Hydrocortisone],CHI,[5],33.8
CC(=O)[C@H]1CC[C@H]2[C@@H]3CC=C4C[C@@H](O)CC[C@]4(C)[C@H]3CC[C@]12C [Pregnenolone],CHI,[5],95.36
C[C@]12CC[C@H]3[C@@H](CCC4=CC(=O)CC[C@@]43C)[C@@H]1CC[C@@H]2O [Testosterone],CHI,[5],75.87
